Data from paper PMC5321434, “Dihydrobenz[e][1,4]oxazepin-2(3H)-ones, a new anthelmintic chemotype immobilising whipworm and reducing infectivity in vivo” (PLoS Neglected Tropical Diseases, 2017).
Like-named read-outs stand apart in the source and are kept apart here.

B1: papain (protein, UniProt P00784 134-345, looked up)
Papain: IPEYVDWRQKGAVTPVKNQGSCGSCWAFSAVVTIEGIIKIRTGNLNEYSEQELLDCDRRSYGCNGGYPWSALQLVAQYGIHYRNTYPYEGVQRYCRSREKGPYAAKTDGVRQVQPYNEGALLYSIANQPVSVVLEAAGKDFQLYRGGIFVGPCGNKVDHAVAAVGYGPNYILIKNSWGTGWGENGYIRIKRGTGNSYGVCGLYTSSFYPVKN
notes: purified protease

Tests used:
[1] = tested on: CMT-93 murine rectal epithelial cells; assay: WST-8 cytotoxicity assay; assay type: cell-based, mouse; conditions: Mus musculus, CMT93; CMT-93 cells, 72 hours, maximum tested concentration 100μM, n = 8, 95% confidence interval in parentheses
Method: (§1) CMT-93 murine rectal epithelial cells were maintained in Dulbecco's Modified Eagle's Medium (DMEM) with 10% fetal calf serum (FCS) and 1% penicillin-streptomycin solution (10,000U/ml). Cells were plated in 96-well tissue culture plates at a density of 2x10^2 cells per well in a volume of 100μl, and cultured for 96 hours (37°C, 5% CO2) until reaching 30% confluence. The growth medium was removed and replaced with treatment media (DMEM, 1% FCS, 1% penicillin-streptomycin solution, 100μl assay volume) supplemented with vehicle alone (DMSO), test compounds or chlorpromazine, a positive control for cytotoxicity (final concentrations from 0 to 100μM). Maximum vehicle concentration for all compounds was 0.5% DMSO. Cells were cultured with the test compounds for 72 hours before cytotoxicity measurement. The WST-8 assay was performed using the Cell Counting Kit– 8 (Sigma Aldrich # 96992). 10μl of the CCK-8 solution was added to each well, plates were incubated for a further 2 hours, before absorbance was measured at 450nm using a microplate reader. This assay measures the ability of metabolically active cells to reduce a water-soluble formazan dye. Results were analysed using GraphPad Prism and fitted using a log-logistic model.

[2] = tested on: CMT-93 murine rectal epithelial cells; assay: Neutral red cytotoxicity assay; assay type: cell-based, mouse; conditions: Mus musculus, CMT93; CMT-93 cells, 72 hours, maximum tested concentration 100μM, n = 8, 95% confidence interval in parentheses
Method: (§2) CMT-93 murine rectal epithelial cells were maintained in Dulbecco's Modified Eagle's Medium (DMEM) with 10% fetal calf serum (FCS) and 1% penicillin-streptomycin solution (10,000U/ml). Cells were plated in 96-well tissue culture plates at a density of 2x10^2 cells per well in a volume of 100μl, and cultured for 96 hours (37°C, 5% CO2) until reaching 30% confluence. The growth medium was removed and replaced with treatment media (DMEM, 1% FCS, 1% penicillin-streptomycin solution, 100μl assay volume) supplemented with vehicle alone (DMSO), test compounds or chlorpromazine, a positive control for cytotoxicity (final concentrations from 0 to 100μM). Maximum vehicle concentration for all compounds was 0.5% DMSO. Cells were cultured with the test compounds for 72 hours before cytotoxicity measurement. Following the WST-8 assay, the medium was removed, cells were washed with 100μl PBS and then 100μl of neutral red medium (DMEM, 1% FBS and 33μg/ml neutral red dye (Sigma Aldrich #N2889) were added to each well, followed by incubation for a further 2 hours. The neutral red medium was removed, cells washed with 100μl of PBS and 100μl of destain solution (50% ethanol, 49% distilled water and 1% glacial acetic acid) were added. Each assay plate was shaken rapidly for 10 minutes before absorbance was measured at 540nm using a microplate reader. This assay measures the ability of living cells to actively take up the neutral red dye. Results were analysed using GraphPad Prism and fitted using a log-logistic model.

adult T. muris = assay: Ex vivo adult T. muris automated motility assay (primary/secondary screen at 100 μM and dose-response); parameters: species or system Trichuris muris; conditions: for EC50: Trichuris muris; for COMBINED_SCREEN_ACTIVITY: combined primary and secondary screen minus log fold change in movement, adult T. muris; for COMBINED_SCREEN_ACTIVITY / PRIMARY_SCREEN_MINUS_LOG_FOLD_CHANGE_MOVEMENT / SECONDARY_SCREEN_MINUS_LOG_FOLD_CHANGE_MOVEMENT: 100 μM; for PRIMARY_SCREEN_MINUS_LOG_FOLD_CHANGE_MOVEMENT: primary screen; for PRIMARY_SCREEN_MINUS_LOG_FOLD_CHANGE_MOVEMENT / SECONDARY_SCREEN_MINUS_LOG_FOLD_CHANGE_MOVEMENT: adult T. muris motility; for SECONDARY_SCREEN_MINUS_LOG_FOLD_CHANGE_MOVEMENT: secondary screen
Method in brief: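 Motility scored after 24 h (37 °C, 5% CO2) by automated imaging of pixel intensity variance, one worm per well, four weekly biological replicates. Worms came from SCID mice infected orally with 200 eggs, harvested day 35; screening at 100 μM final in RPMI-1640/antibiotics, 1% DMSO; curves fitted with four-parameter log-logistic model.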

WST-8 cytotoxicity assay = assay type: cell-based, mouse; conditions: mouse, CMT-93 rectal epithelial cells; resynthesised compound, WST-8 cytotoxicity; read-out: ResynCytotoxityWST-8(EC50uM)
Method: as §1

[3] = Neutral red cytotoxicity assay; assay type: cell-based, mouse; conditions: mouse, CMT-93 rectal epithelial cells; resynthesised compound, neutral red cytotoxicity; read-out: ResynCytotoxicityNeutralRed(EC50uM)
Method: as §2

T. muris [4] = conditions: associated with cuticular damage; cited from earlier work
T. muris [5] = conditions: associated with damage to nematode cuticle; cited from earlier work

Molecule | COMBINED_SCREEN_ACTIVITY (adult T. muris) | PRIMARY_SCREEN_MINUS_LOG_FOLD_CHANGE_MOVEMENT (adult T. muris) | further results
Cc1ccc(CN2C(=O)COCc3cc(Br)ccc32)cc1 [OX03146, 7-Bromo-1-(4-methylbenzyl)-1,5-dihydrobenzo[e][1,4]oxazepin-2(3H)-one] | – | – | EC50 [1]: 63 µM; EC50 [2]: 47 µM; EC50 (adult T. muris; values of Fig 5 shown for comparison, read-out: EC50 in adult Trichuris paralysis assay): 35 µM
O=C1COCc2cc(-c3cccnc3)ccc2N1Cc1ccc(C(F)(F)F)cc1 [Compound 3] | 11.4716 | 10.3243 | EC50 at 72 h (WST-8 cytotoxicity assay): > 100 µM; EC50 at 72 h [3]: 60 µM; EC50 (adult T. muris; resynthesised compound, adult T. muris paralysis, read-out: ResynActivityTmurisAdultParalysis(EC50uM)): 26 µM; SECONDARY_SCREEN_MINUS_LOG_FOLD_CHANGE_MOVEMENT (adult T. muris): 12.6188
Cn1cc(-c2ccc3c(c2)N(CC2CCCCC2)C(=O)COC3)cn1 [Compound 68] | -0.9119 | -0.9119 | –
COCc1cccc(-c2ccc3c(c2)N(Cc2cccc(OC)c2)C(=O)COC3)c1 [Compound 172] | -0.3707 | -0.3707 | –
COCCN1C(=O)COCc2ccc(-c3ccc(Cl)cc3)cc21 [Compound 53] | -0.5764 | -0.5764 | –
COc1ccccc1-c1ccc2c(c1)N(CCc1ccccc1)C(=O)COC2 [Compound 121] | 1.0336 | 1.0336 | –
O=C1COCc2ccccc2N1Cc1cc(F)cc(F)c1 [Compound 23] | -1.442 | -1.442 | –
O=C1COCc2cc(Br)ccc2N1CCN1CCOCC1 [Compound 91] | -2.221 | -2.221 | –
COc1cccc(CN2C(=O)COCc3cc(-c4cnn(C)c4)ccc32)c1 [Compound 105] | -0.2739 | -0.55 | SECONDARY_SCREEN_MINUS_LOG_FOLD_CHANGE_MOVEMENT (adult T. muris): 0.002295
CC(=O)Nc1cccc(-c2ccc3c(c2)N(CC2CCCCC2)C(=O)COC3)c1 [Compound 149] | 6.083 | 10.5493 | SECONDARY_SCREEN_MINUS_LOG_FOLD_CHANGE_MOVEMENT (adult T. muris): 1.617
O=C1COCc2cc(-c3ccncc3)ccc2N1CCc1ccccc1 [Compound 75] | 2.679 | 2.679 | –
C/C=C/c1cc(OC)c2c(c1)OCO2 [isomyristicin] | – | – | Activity against T. muris (T. muris [4]): activity against T. muris
B1 | – | – | Effect on motility of T. muris parasites in vitro (T. muris [5]): rapidly reduce motility
